The experiment deals with human PDGFRβ (Homo sapiens (Human), UniProt P09619). The experiment in a line: PDGFRβ kinase assay (PDGFRβ-HTRF). Type of experiment: biochemical. Particulars: 10 μM ATP; some mean values from multiple determinations. On the procedure: The PDGFRβ-inhibitory activity of the inventive compounds was determined in the PDGFRβ-HTRF assay described hereinafter.
human PDGFRβ, sequence (P09619 561-1106): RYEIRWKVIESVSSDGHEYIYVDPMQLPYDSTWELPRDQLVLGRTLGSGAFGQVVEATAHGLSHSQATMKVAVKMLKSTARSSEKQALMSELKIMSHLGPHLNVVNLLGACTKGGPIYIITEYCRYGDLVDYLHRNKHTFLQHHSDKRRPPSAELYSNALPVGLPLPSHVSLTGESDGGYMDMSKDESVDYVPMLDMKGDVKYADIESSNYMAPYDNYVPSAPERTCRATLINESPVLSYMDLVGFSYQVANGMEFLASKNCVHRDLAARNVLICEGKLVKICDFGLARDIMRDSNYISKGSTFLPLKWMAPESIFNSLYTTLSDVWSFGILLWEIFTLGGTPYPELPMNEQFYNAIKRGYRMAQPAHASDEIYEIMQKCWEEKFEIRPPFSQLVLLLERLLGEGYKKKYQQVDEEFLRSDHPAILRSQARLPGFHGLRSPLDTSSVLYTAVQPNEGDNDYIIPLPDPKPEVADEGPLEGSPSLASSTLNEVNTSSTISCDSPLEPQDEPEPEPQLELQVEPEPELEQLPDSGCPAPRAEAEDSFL
The kinase used was a recombinant fusion protein composed of N-terminal GST and a C-terminal fragment of human PDGFRβ (amino acids R561-L1106), expressed in baculovirus-infected insect cells (Sf9) and purified by affinity chromatography (from ProQinase GmbH, Freiburg, Germany). The substrate used for the kinase reaction was biotinylated poly-Glu,Tyr (4:1) copolymer (from Cisbio Bioassays, Codolet, France).
For the assay, 50 nl of a 100-fold concentrated solution of the test substance in DMSO was pipetted into a black “low-volume 384 well” microtitre plate (from Greiner Bio-One, Frickenhausen, Germany), then 2 μl of a solution of PDGFRβ in assay buffer [50 mM HEPES/NaOH pH 7.5, 10 mM MgCl2, 2.5 mM dithiothreitol, 0.01% (v/v) Triton-X100 (from Sigma)] was added and the mixture was incubated for 15 min, in order to enable preliminary binding of the substance to the enzyme before the kinase reaction. […] The resulting mixture was incubated at 22° C. for 1 h to allow formation of a complex of the biotinylated phosphorylated substrate and the detection reagents.
Subsequently, the amount of the phosphorylated substrate was evaluated by measuring the resonance energy transfer from the PT66-Eu chelate to the streptavidin-XL665. […] The IC50 values were calculated by a 4-parameter fit.
Background: Time-resolved FRET reads energy transfer from a long-lived donor to a nearby acceptor.
Usually IC50 stands for the concentration at which inhibition is half-maximal. A low value points to higher potency. Turning to `N#Cc1ccc2c(c1)NC(=O)c1c(Nc3cc(O)ccc3F)ccnc1N2` [Example 13, 4-[(2-Fluoro-5-hydroxyphenyl)amino]-5-oxo-6,11-dihydro-5H-pyrido[2,3-b][1,5]benzodiazepine-8-carbonitrile], half-maximal inhibition (IC50) required 21.9 nM.

`Cc1cc(F)c(Nc2ccnc3c2C(=O)Nc2cc(CNC[C@@H]4CCN(C(=O)OC(C)(C)C)C[C@H]4O)ccc2N3)cc1O` [Example 176, tert-Butyl (3S,4S)-4-{[({4-[(2-fluoro-5-hydroxy-4-methylphenyl)amino]-5-oxo-6,11-dihydro-5H-pyrido[2,3-b][1,5]benzodiazepin-8-yl}methyl)amino]methyl}-3-hydroxypiperidine-1-carboxylate] registered an IC50 of 3.45 nM.

Turning to `Cc1cc(F)c(Nc2ccnc3c2C(=O)Nc2cc(CNC4CCCC4)ccc2N3)cc1O` [Example 226, 8-[(Cyclopentylamino)methyl]-4-[(2-fluoro-5-hydroxy-4-methylphenyl)amino]-6,11-dihydro-5H-pyrido[2,3-b][1,5]benzodiazepin-5-one], the 50% inhibitory concentration (IC50) turned out to be 1.09 nM. Compared with the last compound, the IC50 is about 3.2-fold lower.

Turning to `Cc1cc(F)c(Nc2ccnc3c2C(=O)Nc2cc(CN4CCCC(O)(c5ccccc5)C4)ccc2N3)cc1O` (racemic) [Example 73, rac-4-[(2-Fluoro-5-hydroxy-4-methylphenyl)amino]-8-[(3-hydroxy-3-phenylpiperidin-1-yl)methyl]-6,11-dihydro-5H-pyrido[2,3-b][1,5]benzodiazepin-5-one], half-maximal inhibition (IC50) was put at 1.98 nM. This IC50 lies about 1.8-fold higher than the previous one.

`Cc1ccn(CCCNCc2ccc3c(c2)NC(=O)c2c(Nc4cc(O)ccc4C)ccnc2N3)n1` [Example 101]: the IC50 came to 2.98 nM.

As to `Cc1ccc(O)cc1Nc1ccnc2c1C(=O)Nc1cc(CNCC(C)(C)N(C)C)ccc1N2` [Example 144], the midpoint of inhibition, the IC50, lay at 7.72 nM.

For the compound `Cc1ccc(O)cc1Nc1ccnc2c1C(=O)Nc1cc(CNCC(C)N3CCOCC3)ccc1N2` (stereo not shown) [Example 135], the IC50 stood at 5.74 nM.

Regarding `CCCCN(CC)Cc1ccc2c(c1)NC(=O)c1c(Nc3cc(O)c(C)cc3F)ccnc1N2` [Example 53, 8-{[Butyl(ethyl)amino]methyl}-4-[(2-fluoro-5-hydroxy-4-methylphenyl)amino]-6,11-dihydro-5H-pyrido[2,3-b][1,5]benzodiazepin-5-one], half-maximal inhibition (IC50) required 0.962 nM.

The compound `Cc1ccc(O)cc1Nc1ccnc2c1C(=O)Nc1cc(CNCc3cccc(Cl)c3)ccc1N2` [Example 15, 8-{[(3-Chlorobenzyl)amino]methyl}-4-[(5-hydroxy-2-methylphenyl)amino]-6,11-dihydro-5H-pyrido[2,3-b][1,5]benzodiazepin-5-one] gave an IC50 of 5.77 nM. Against the preceding compound, the IC50 is about 6-fold higher.

`CCCCNCc1ccc2c(c1)NC(=O)c1c(Nc3cc(O)ccc3C)ccnc1N2` [Example 23, 8-[(Butylamino)methyl]-4-[(5-hydroxy-2-methylphenyl)amino]-6,11-dihydro-5H-pyrido[2,3-b][1,5]benzodiazepin-5-one] gave an IC50 of 2.98 nM.

As to `COc1cccc(CNCc2ccc3c(c2)NC(=O)c2c(Nc4cc(O)ccc4C)ccnc2N3)c1` [Example 96], half-maximal inhibition (IC50) required 2.1 nM. The IC50 values of the last two compounds are within 1.5-fold of each other.

`CCOC(=O)[C@H]1C[C@@H](NCc2ccc3c(c2)NC(=O)c2c(Nc4cc(O)c(C)cc4F)ccnc2N3)C1` [Example 191, cis-Ethyl 3-[({4-[(2-fluoro-5-hydroxy-4-methylphenyl)amino]-5-oxo-6,11-dihydro-5H-pyrido[2,3-b][1,5]benzodiazepin-8-yl}methyl)amino]cyclobutanecarboxylate] had an IC50 of 0.626 nM. This IC50 is about 3.4-fold lower than that of the compound before.

Turning to `Cc1ccc(O)cc1Nc1ccnc2c1C(=O)Nc1cc(CNCCO)ccc1N2` [Example 24, 8-{[(2-Hydroxyethyl)amino]methyl}-4-[(5-hydroxy-2-methylphenyl)amino]-6,11-dihydro-5H-pyrido[2,3-b][1,5]benzodiazepin-5-one], the half-maximal inhibitory concentration (IC50) came to 4.74 nM. Compared with the last compound, the IC50 is about 7.6-fold higher.

As for `Cc1cc(F)c(Nc2ccnc3c2C(=O)Nc2cc(CN(C)CCN(C)C)ccc2N3)cc1O` [Example 203, 8-({[2-(Dimethylamino)ethyl](methyl)amino}methyl)-4-[(2-fluoro-5-hydroxy-4-methylphenyl)amino]-6,11-dihydro-5H-pyrido[2,3-b][1,5]benzodiazepin-5-one], half-maximal inhibition (IC50) was put at 1.87 nM.

`N#Cc1ccc2c(c1)NC(=O)c1c(Nc3cc(O)c(Cl)cc3Cl)ccnc1N2` [Example 10, 4-[(2,4-Dichloro-5-hydroxyphenyl)amino]-5-oxo-6,11-dihydro-5H-pyrido[2,3-b][1,5]benzodiazepine-8-carbonitrile]: the half-inhibitory concentration (IC50) was determined as 65.9 nM.

`Cc1cc(F)c(Nc2ccnc3c2C(=O)Nc2cc(CN4CCC5(O)CCCCC5C4)ccc2N3)cc1O` (stereo not shown) [Example 183, 4-[(2-Fluoro-5-hydroxy-4-methylphenyl)amino]-8-[(4a-hydroxyoctahydroisoquinolin-2(1H)-yl)methyl]-6,11-dihydro-5H-pyrido[2,3-b][1,5]benzodiazepin-5-one] had an IC50 of 1.2 nM.

Turning to `Cc1ccc(O)cc1Nc1ccnc2c1C(=O)Nc1cc(CN3CCN(C)CC3)ccc1N2` [Example 43, 4-[(5-Hydroxy-2-methylphenyl)amino]-8-[(4-methylpiperazin-1-yl)methyl]-6,11-dihydro-5H-pyrido[2,3-b][1,5]benzodiazepin-5-one], the midpoint of inhibition, the IC50, lay at 2.3 nM.

With `Cc1cc(F)c(Nc2ccnc3c2C(=O)Nc2cc(C(=O)N[C@H]4CC[C@H](O)CC4)ccc2N3)cc1O` [Example 180, 4-[(2-Fluoro-5-hydroxy-4-methylphenyl)amino]-N-(trans-4-hydroxycyclohexyl)-5-oxo-6,11-dihydro-5H-pyrido[2,3-b][1,5]benzodiazepine-8-carboxamide], inhibition was half-maximal at 2.43 nM (IC50).

In turn, `Cc1cc(F)c(Nc2ccnc3c2C(=O)Nc2cc(CNC4CCC4)ccc2N3)cc1O` [Example 188, 8-[(Cyclobutylamino)methyl]-4-[(2-fluoro-5-hydroxy-4-methylphenyl)amino]-6,11-dihydro-5H-pyrido[2,3-b][1,5]benzodiazepin-5-one] returned an IC50 of 1.75 nM.

For the compound `CCN(CC)C(=O)c1ccc2c(c1)NC(=O)c1c(Nc3cc(O)c(C)cc3F)ccnc1N2` [Example 84, N,N-Diethyl-4-[(2-fluoro-5-hydroxy-4-methylphenyl)amino]-5-oxo-6,11-dihydro-5H-pyrido[2,3-b][1,5]benzodiazepine-8-carboxamide], it took 14.6 nM to reach half-maximal inhibition (IC50).

`Cc1ccc(O)cc1Nc1ccnc2c1C(=O)Nc1cc(CNCc3cccc(F)c3)ccc1N2` [Example 120] came in with an IC50 of 1.49 nM.

`Cc1cc(F)c(Nc2ccnc3c2C(=O)Nc2cc(CN)ccc2N3)cc1O` [Example 87, 8-(Aminomethyl)-4-[(2-fluoro-5-hydroxy-4-methylphenyl)amino]-6,11-dihydro-5H-pyrido[2,3-b][1,5]benzodiazepin-5-one] gave an IC50 of 1.41 nM.

Regarding `N#Cc1ccc2c(c1)NC(=O)c1c(Nc3ccc(O)c(O)c3)ccnc1N2` [Example 12, 4-[(3,4-Dihydroxyphenyl)amino]-5-oxo-6,11-dihydro-5H-pyrido[2,3-b][1,5]benzodiazepine-8-carbonitrile], the half-maximal inhibitory concentration (IC50) was 84.4 nM.

As for `Cc1cc(F)c(Nc2ccnc3c2C(=O)Nc2cc(CN4CCC(O)CC4)ccc2N3)cc1O` [Example 45, 4-[(2-Fluoro-5-hydroxy-4-methylphenyl)amino]-8-[(4-hydroxypiperidin-1-yl)methyl]-6,11-dihydro-5H-pyrido[2,3-b][1,5]benzodiazepin-5-one], the IC50 amounted to 0.928 nM.

Consider `CCN(CC)CC(C)NCc1ccc2c(c1)NC(=O)c1c(Nc3cc(O)ccc3C)ccnc1N2` (stereo not shown) [Example 112], for which the 50% inhibitory concentration (IC50) stood at 2.34 nM.

These data come from US10047096B2, “Substituted pyridobenzodiazepinone-derivatives and use thereof” (Bayer Pharma Aktiengesellschaft, priority 2014, dated 2018).
